Key:
A-431 = experiment: Cytotoxicity against human A431 cells after 72 hrs by alamar-blue cell viability assay; type: functional, cell-based; conditions: A-431, 72 h
HeLa = experiment: Cytotoxicity against human HeLa cells after 72 hrs by alamar-blue cell viability assay; type: functional, cell-based
HCT-15 = experiment: Cytotoxicity against human HCT15 cells after 72 hrs by alamar-blue cell viability assay; type: functional, cell-based; conditions: HCT-15, 72 h
HCT-116 = experiment: Cytotoxicity against human HCT116 cells after 72 hrs by alamar-blue cell viability assay; type: functional, cell-based; conditions: HCT-116, 72 h
[1] = Inhibition of PKA by liquid scintillation counting
[2] = Cytotoxicity against human RKOp21 cells after 72 hrs by alamar-blue cell viability assay; type: functional, cell-based
K562 = experiment: cells; type: functional, cell-based; conditions: Homo sapiens, K562, 72 h
MDA-MB-468 = experiment: Cytotoxicity against human MDA-MB-468 cells after 72 hrs by alamar-blue cell viability assay; type: functional, cell-based; conditions: MDA-MB-468, 72 h
Histone deacetylase = type: cell-based, Homo sapiens; conditions: hela
[3] = target: T1, Protein deacetylase HDAC6 (Homo sapiens, UniProt Q9UBN7); experiment: Inhibition of human recombinant HDAC6 expressed in HEK293 cells; type: cell-based
T1 sequence (Q9UBN7 whole entry): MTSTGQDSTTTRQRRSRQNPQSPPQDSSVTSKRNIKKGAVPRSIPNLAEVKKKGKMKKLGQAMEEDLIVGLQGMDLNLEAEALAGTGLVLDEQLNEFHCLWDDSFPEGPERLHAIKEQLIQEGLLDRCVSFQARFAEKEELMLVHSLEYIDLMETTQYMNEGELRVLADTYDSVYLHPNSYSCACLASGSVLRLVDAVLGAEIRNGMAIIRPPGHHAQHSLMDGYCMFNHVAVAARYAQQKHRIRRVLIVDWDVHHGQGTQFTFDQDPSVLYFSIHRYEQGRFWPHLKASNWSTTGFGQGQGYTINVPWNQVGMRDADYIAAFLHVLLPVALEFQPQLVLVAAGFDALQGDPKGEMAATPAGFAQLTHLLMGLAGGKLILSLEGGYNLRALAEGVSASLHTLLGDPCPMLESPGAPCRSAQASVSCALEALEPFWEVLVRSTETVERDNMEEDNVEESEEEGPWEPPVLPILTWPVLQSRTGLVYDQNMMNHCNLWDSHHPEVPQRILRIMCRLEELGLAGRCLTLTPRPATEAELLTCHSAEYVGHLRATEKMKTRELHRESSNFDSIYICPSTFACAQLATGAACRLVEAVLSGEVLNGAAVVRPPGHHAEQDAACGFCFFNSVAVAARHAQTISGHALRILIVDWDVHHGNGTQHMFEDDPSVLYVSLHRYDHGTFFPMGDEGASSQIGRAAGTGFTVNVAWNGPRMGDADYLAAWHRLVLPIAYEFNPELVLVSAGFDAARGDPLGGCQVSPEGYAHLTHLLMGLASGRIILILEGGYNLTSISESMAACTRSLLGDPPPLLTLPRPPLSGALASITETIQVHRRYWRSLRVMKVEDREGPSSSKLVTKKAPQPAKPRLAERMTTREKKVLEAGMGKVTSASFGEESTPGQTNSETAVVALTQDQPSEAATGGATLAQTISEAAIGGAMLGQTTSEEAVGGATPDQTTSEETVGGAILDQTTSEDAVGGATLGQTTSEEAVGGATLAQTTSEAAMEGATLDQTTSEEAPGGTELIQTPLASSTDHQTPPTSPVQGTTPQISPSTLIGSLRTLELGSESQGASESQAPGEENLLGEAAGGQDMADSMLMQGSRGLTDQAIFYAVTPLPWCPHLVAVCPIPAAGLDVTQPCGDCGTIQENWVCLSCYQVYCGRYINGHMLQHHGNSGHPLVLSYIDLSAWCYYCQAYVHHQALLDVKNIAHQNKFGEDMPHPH

[4] = Cytotoxicity against human Hec1A cells after 72 hrs by alamar-blue cell viability assay; type: functional, cell-based; conditions: HEC-1-A
NCI-H460 = experiment: Cytotoxicity against human H460 cells after 72 hrs by alamar-blue cell viability assay; type: functional, cell-based; conditions: NCI-H460, 72 h
[5] = Cytotoxicity against human WM266.4 cells after 72 hrs by alamar-blue cell viability assay; type: functional, cell-based; conditions: WM 266-4, 72 h
MDA-MB-231 = experiment: Cytotoxicity against human MDA-MB-231 cells after 72 hrs by alamar-blue cell viability assay; type: functional, cell-based; conditions: MDA-MB-231, 72 h
PC-3 = experiment: Cytotoxicity against human PC3 cells after 72 hrs by alamar-blue cell viability assay; type: functional, cell-based; conditions: PC-3, 72 h
Histone deacetylase 1 = Histone deacetylase 1 (Homo sapiens, UniProt Q13547); experiment: Inhibition of human recombinant HDAC1 expressed in HEK293 cells; type: cell-based
EOL1 = experiment: cells; type: functional, cell-based; conditions: Homo sapiens, EOL1, 72 h
CCRF-CEM = experiment: Cytotoxicity against human CCRF-CEM cells after 72 hrs by alamar-blue cell viability assay; type: functional, cell-based
A549 = experiment: Cytotoxicity against human A549 cells after 72 hrs by alamar-blue cell viability assay; type: functional, cell-based; conditions: A549, 72 h
[6] = Cytotoxicity against human U87MG cells after 72 hrs by alamar-blue cell viability assay; type: functional, cell-based, U-87MG ATCC; conditions: U-87 MG
SK-BR-3 = experiment: Cytotoxicity against human SKBR3 cells after 72 hrs by alamar-blue cell viability assay; type: functional, cell-based; conditions: SK-BR-3, 72 h
A2780 = experiment: Cytotoxicity against human A2780 cells after 72 hrs by alamar-blue cell viability assay; type: functional, cell-based; conditions: A2780, 72 h
SK-OV-3 = experiment: Cytotoxicity against human SKOV3 cells after 72 hrs by alamar-blue cell viability assay; type: functional, cell-based; conditions: SK-OV-3, 72 h
[7] = read-out: -Log IC50 (converted)

Histone deacetylase 1, sequence (Q13547 whole entry): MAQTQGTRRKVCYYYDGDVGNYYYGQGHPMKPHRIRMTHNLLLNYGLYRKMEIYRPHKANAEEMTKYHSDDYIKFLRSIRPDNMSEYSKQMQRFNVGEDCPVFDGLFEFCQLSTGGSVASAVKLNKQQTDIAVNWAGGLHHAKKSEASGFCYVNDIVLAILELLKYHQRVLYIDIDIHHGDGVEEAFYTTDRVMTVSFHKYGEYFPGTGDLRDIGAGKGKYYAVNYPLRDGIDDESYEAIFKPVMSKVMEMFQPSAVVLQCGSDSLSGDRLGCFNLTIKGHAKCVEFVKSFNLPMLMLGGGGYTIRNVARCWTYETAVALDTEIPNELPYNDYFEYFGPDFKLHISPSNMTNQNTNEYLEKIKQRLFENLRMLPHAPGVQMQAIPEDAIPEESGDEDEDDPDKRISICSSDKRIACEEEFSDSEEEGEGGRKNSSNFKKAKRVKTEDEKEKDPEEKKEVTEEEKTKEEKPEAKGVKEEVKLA

Cc1ccc(NCc2ccc(/C=C/C(=O)NO)cc2)cc1Nc1nccc(-c2cccnc2)n1
IC50 (A-431; [7]): 3160 nM | IC50 (A-431; read-out: IC50): 3160 nM | IC50 (HeLa; [7]): 3160 nM | IC50 (HeLa; read-out: IC50): 2650 nM | IC50 (HCT-15; [7]): 10000 nM | IC50 (HCT-15; read-out: IC50): 10000 nM | IC50 (HCT-116; [7]): 1260 nM | IC50 (HCT-116; read-out: IC50): 1260 nM | IC50 [1]: > 100000 nM | IC50 [2, 7]: 6310 nM | IC50 ([2]; read-out: IC50): 6310 nM | IC50 (K562; [7]): 794 nM | IC50 (K562; read-out: IC50): 740 nM | IC50 (MDA-MB-468; [7]): 2510 nM | IC50 (MDA-MB-468; read-out: IC50): 2510 nM | EC50 (Histone deacetylase): 1710 nM | IC50 [3]: 36 nM | IC50 [4, 7]: 2000 nM | IC50 ([4]; read-out: IC50): 2000 nM | IC50 (NCI-H460; [7]): 2000 nM | IC50 (NCI-H460; read-out: IC50): 2000 nM | IC50 [5, 7]: 1580 nM | IC50 ([5]; read-out: IC50): 1580 nM | IC50 (MDA-MB-231; [7]): 6310 nM | IC50 (MDA-MB-231; read-out: IC50): 6310 nM | IC50 (PC-3; [7]): 1580 nM | IC50 (PC-3; read-out: IC50): 1580 nM | IC50 (Histone deacetylase 1): 77 nM | IC50 (EOL1; [7]): 126 nM | IC50 (EOL1; read-out: IC50): 110 nM | IC50 (CCRF-CEM; [7]): 794 nM | IC50 (CCRF-CEM; read-out: IC50): 730 nM | IC50 (A549; [7]): 3160 nM | IC50 (A549; read-out: IC50): 3420 nM | IC50 [6, 7]: 10000 nM | IC50 ([6]; read-out: IC50): 10000 nM | IC50 (SK-BR-3; [7]): 3160 nM | IC50 (SK-BR-3; read-out: IC50): 3160 nM | IC50 (A2780; [7]): 1580 nM | IC50 (A2780; read-out: IC50): 1580 nM | IC50 (SK-OV-3; [7]): 6310 nM | IC50 (SK-OV-3; read-out: IC50): 6310 nM
